# Test results: patent US20050197336A1 (Miikana Therapeutics Corporation, priority 2004, published 2005)
# Columns and labels:
# [1] = system: Histone deacetylase (HDAC), HeLa cell nuclear extract; assay: In vitro fluorescent histone deacetylase assay (Biomol kit, HeLa cell nuclear extract); assay type: biochemical; conditions: compound at 100 μM; HeLa cell nuclear extract as HDAC source; substrate 50 μM; 10 min at room temperature
# Method: Histone deacetylase (HDAC) activity assays were performed using the HDAC fluorescent activity assay/drug discovery kit (Biomol Research Laboratories, Plymouth Meeting, Pa.) essentially according to the manufacturer's instructions. The included HeLa cell nuclear extract, which contains a mosaic of HDAC enzymes and other nuclear factors, was used as the source of HDAC activity. The final substrate concentration in the assay mixture was 50 μM. The reaction was allowed to proceed for 10 min at room temperature before stopping the reaction. Test compounds were prepared as 20 mM stock solutions in DMSO (Molecular Biology grade, Sigma-Aldrich Co. St. Louis, Mo.) and stored at −70° C. Serial dilutions of test compounds were prepared in assay buffer immediately prior to testing. DMSO was determined in a separate trial to have no significant effect on the activity of this assay at concentrations up to 5%; the final DMSO concentration in the wells was no more than 2% and therefore DMSO effects were safely neglected. Assays were performed in white polystyrene 96-well half-area assay plates (Corning, Corning, N.Y.) and measured on a Wallace 1420 fluorescent plate reader (Wallac Oy, Turku, Finland) with an excitation wavelength of 355 nm, an emission wavelength of 460 nm, and a 1 sec signal averaging time.
# MCF7 cells = assay: Whole cell cytotoxicity assay: Sulforhodamine B; assay type: cell-based, human; conditions: Homo sapiens; compound at 100 μM; MCF7 cell growth; 48 hours with drug; SRB staining
# Method: The following procedure can be found on the Developmental Therapeutics Program NCI/NIH web site at http://dtp.nci.nih.gov/brancehes/btb/ivclsp.html.
# 1. Human tumor cell lines of HT29, A549 and MCF7 are grown in DMEM containing 10% fetal bovine serum and 2 mM L-glutamine. Cells are plated in a 96 well plate at a density of 5000 cells per well in 100 μL of growth medium and incubated at 37° C., 5% CO2, for 24 hours prior to the addition of experimental compounds.
# 2. Experimental drugs are solubilized in DMSO for a final concentration of 20 mM immediately prior to use. Drugs are further diluted in growth media for a total of nine drug concentrations and a growth control. At the 24 hour time point, one plate of cells is fixed in situ with TCA as a measurement of the cell population at time zero, or the time of drug addition.
# 3. The plates are further incubated with drug for an additional 48 hours.
# 4. The cells are fixed in situ by gently aspirating off the culture media and then adding 50 μL of ice cold 10% TCA per well and incubated at 4° C. for 60 minutes. The plates are washed with tap water five times and allowed to air dry for 5 minute.
# 5. 50 μL of a 0.4% (w/v) Sulforhodamine B solution in 1% (v/v) acetic acid is added per well and incubated for 30 minutes at room temperature.
# 6. Following staining, plates are washed five times with 1% acetic acid to remove any unbound dye and then allowed to air dry for 5 minutes.
# 7. Stain is solubilized with 100 μL of 10 mM Tris pH 10.5 per well and placed on an orbital rotator for 5 minutes.
# 8. Absorbance is read at 570 nm.
Compound,% inhibition HDAC @ 100 μM [1],inhibition at 100 µM (MCF7 cells)
CCN(CC)Cc1cccc(-c2ccc(S(=O)(=O)N3CCN(c4ncc(C(=O)NO)s4)CC3)cc2)c1.Cl [Example 78],100%,99%
"CN(C)S(=O)(=O)N1CCN(c2ncc(C(=O)NO)s2)CC1 [Example 14, 2-[4-(N,N-dimethylsulfonyl)-piperazin-1-yl]-thiazole-5-carboxylic acid hydroxyamide]",98%,89.8%
O=C(NO)c1cnc(N2CCN(S(=O)(=O)c3ccc(-c4ccc(CN5CCCC5)s4)cc3)CC2)s1 [Example 88],99%,93.8%
Cn1cnc(S(=O)(=O)N2CCN(c3ncc(C(=O)NO)s3)CC2)c1 [Example 102],99%,84%
"COc1ccc(S(=O)(=O)N2CCN(c3ncc(C(=O)NO)s3)CC2)cc1OC [Example 2, 2-[4-(3,4-dimethoxy-benzenesulfonyl)-piperazin-1-yl]-thiazole-5-carboxylic acid hydroxyamide]",99%,98.3%
"O=C(NO)c1cnc(N2CCN(S(=O)(=O)c3ccc(-c4cccnc4)cc3)CC2)s1 [Example 93, 2-[4-{(3-pyrido)benzenesulfonyl}-piperazin-1-yl]-thiazole-5-carboxylic acid hydroxyamide]",100%,92.7%
O=C(NO)c1cnc(N2CCN(S(=O)(=O)c3ccc(CN4CCOCC4)cc3)CC2)s1 [Example 106],99%,82.3%
"O=C(NO)c1cnc(N2CCN(S(=O)(=O)c3cc(F)cc(F)c3)CC2)s1 [Example 52, 2-[4-(3,5-difluorophenylsulfonyl)-piperazin-1-yl]-thiazole-5-carboxylic acid hydroxyamide]",–,97.3%
O=C(NO)c1cnc(N2CCN(S(=O)(=O)c3ccc(-c4cccc(CN5CCCCC5)c4)cc3)CC2)s1 [Example 73],100%,96.7%
"O=C(NO)c1cnc(N2CCN(S(=O)(=O)c3ccc(-c4ccc(F)cc4)cc3)CC2)s1 [Example 56, 2-{4-[(4′-fluoro-1,1′-biphenyl-4-yl)sulfonyl]piperazin-1-yl}-1,3-thiazole-5-carboxylic acid hydroxyamide]",98%,96.9%
"O=C(NO)c1cnc(N2CCN(S(=O)(=O)c3ccc(-c4ccc(C(=O)N5CCOCC5)cc4)cc3)CC2)s1 [Example 69, 2-[4-(4′-(morpholin-4-ylcarbonyl)-1,1′-biphenylsulfonyl)piperazin-1-yl]-1,3-thiazole-5-carboxylic acid hydroxyamide]",–,87.7%
O=C(NO)c1cnc(N2CCN(S(=O)(=O)c3cccc(CN4CCCC4)c3)CC2)s1 [Example 98],98%,92.2%
"O=C(NO)c1cnc(N2CCN(S(=O)(=O)c3ccc4c(c3)OCCO4)CC2)s1 [Example 44, 2-[4-(3,4-benzodioxansulfonyl)-piperazin-1-yl]-thiazole-5-carboxylic acid hydroxyamide]",–,91.7%
"O=C(NO)c1cnc(N2CCN(S(=O)(=O)c3ccc(-c4ccc[nH]4)cc3)CC2)s1 [Example 67, 2-(4-{[4-(1H-pyrrol-2-yl)phenyl]sulfonyl}piperazin-1-yl)-1,3-thiazole-5-carboxylic acid hydroxyamide]",–,98%
"O=C(NO)c1cnc(N2CCN(S(=O)(=O)c3ccccc3)CC2)s1 [Example 12, 2-[4-(benzenesulfonyl)-piperazin-1-yl]-thiazole-5-carboxylic acid hydroxyamide]",98%,95.5%
"O=C(NO)c1cnc(N2CCN(S(=O)(=O)c3ccc4c(c3)CCO4)CC2)s1 [Example 42, 2-[4-(2,3-dihydrobenzofuransulfonyl)-piperazin-1-yl]-thiazole-5-carboxylic acid hydroxyamide]",–,90%

Compound,% inhibition HDAC @ 100 μM [1],inhibition at 100 µM (MCF7 cells)
O=C(NO)c1cnc(N2CCN(S(=O)(=O)c3cc4ccccc4s3)CC2)s1 [Example 43],99%,91%
Cc1cccc(Cl)c1S(=O)(=O)N1CCN(c2ncc(C(=O)NO)s2)CC1 [Example 38],100%,97.8%
"CN(C)c1cccc2c(S(=O)(=O)N3CCN(c4ncc(C(=O)NO)s4)CC3)cccc12 [Example 10, 2-[4-(5-dimethylamino-naphthalene-1-sulfonyl)-piperazin-1-yl]-thiazole-5-carboxylic acid hydroxyamide]",88%,97.8%
"O=C(NO)c1cnc(N2CCN(S(=O)(=O)c3cccc(F)c3)CC2)s1 [Example 35, 2-[4-(3-fluorophenylsulfonyl)-piperazin-1-yl]-thiazole-5-carboxylic acid hydroxyamide]",97%,97.9%
"O=C(NO)c1cnc(N2CCN(S(=O)(=O)c3cccc(-c4ccccc4)c3)CC2)s1 [Example 51, 2-[4-(3-biphenylsulfonyl)-piperazin-1-yl]-thiazole-5-carboxylic acid hydroxyamide]",100%,97%
CC(C)(C)c1ccc(-c2ccc(S(=O)(=O)N3CCN(c4ncc(C(=O)NO)s4)CC3)cc2)cc1 [Example 64],48%,87%
"CN(C)CCN(C)Cc1cccc(-c2ccc(S(=O)(=O)N3CCN(c4ncc(C(=O)NO)s4)CC3)cc2)c1 [Example 85, 2-{4-[3′-{[(2-(dimethylamino)ethyl)(methyl)amino]methyl}-1,1′-biphenylsulfonyl]piperazin-1-yl}-1,3-thiazole-5-carboxylic acid hydroxyamide]",–,97.5%
"CCc1ccc(S(=O)(=O)N2CCN(c3ncc(C(=O)NO)s3)CC2)cc1 [Example 100, 2-[4-(4-Ethylbenzenesulfonyl)piperazin-1-yl]-thiazole-5-carboxylic acid hydroxyamide]",–,96.8%
"O=C(NO)c1cnc(N2CCN(S(=O)(=O)c3ccc(Cl)c(Cl)c3)CC2)s1 [Example 15, 2-[4-(3,4-dichlorolphenylsulfonyl)-piperazin-1-yl]-thiazole-5-carboxylic acid hydroxyamide]",–,88.5%
"CS(=O)(=O)Nc1ccc(-c2ccc(S(=O)(=O)N3CCN(c4ncc(C(=O)NO)s4)CC3)cc2)cc1 [Example 70, 2-[4-(4′-methylsulfonylamino-1,1′-biphenylsulfonyl)piperazin-1-yl]-1,3-thiazole-5-carboxylic acid hydroxyamide]",–,83.6%
"CC(=O)c1ccc(S(=O)(=O)N2CCN(c3ncc(C(=O)NO)s3)CC2)cc1 [Example 7, 2-[4-(4-acetyl-benzenesulfonyl)-piperazin-1-yl]-thiazole-5-carboxylic acid hydroxyamide]",–,83.3%
"O=C(NO)c1cnc(N2CCN(S(=O)(=O)c3ccccc3Cl)CC2)s1 [Example 17, 2-[4-(2-chlorophenalsulfonyl)-piperazin-1-yl]-thiazole-5-carboxylic acid hydroxyamide]",–,97.8%
"O=C(NO)c1cnc(N2CCN(S(=O)(=O)c3ccc(C(F)(F)F)cc3)CC2)s1 [Example 5, 2-[4-(4-trifluoromethyl-benzenesulfonyl)-piperazin-1-yl]-thiazole-5-carboxylic acid hydroxyamide]",–,97.9%
"O=C(NO)c1cnc(N2CCN(S(=O)(=O)c3ccc(-n4cccn4)cc3)CC2)s1 [Example 101, 2-[4-(4-pyrazolylbenzenesulfonyl)-piperazin-1-yl]-thiazole-5-carboxylic acid hydroxyamide]",–,98.1%
"CN(C)c1cccc(-c2ccc(S(=O)(=O)N3CCN(c4ncc(C(=O)NO)s4)CC3)cc2)c1 [Example 71, 2-[4-(3′-(dimethylamino)-1,1′-biphenylsulfonyl)piperazin-1-yl]-1,3-thiazole-5-carboxylic acid hydroxyamide]",–,97.2%
"O=C(NO)c1cnc(N2CCN(S(=O)(=O)c3ccc(Cl)cc3)CC2)s1 [Example 54, 2-[4-(chlorophenalsulfonyl)-piperazin-1-yl]-thiazole-5-carboxylic acid hydroxyamide]",–,97.1%
